Results as given in patent US20250099407A1, “2-AMINO BENZOPHENONE DERIVATIVES FOR TARGETED FERROPTOSIS INDUCTION IN CANCER THERAPY” (INDIAN INSTITUTE OF TECHNOLOGY KANPUR, priority 2023, published 2025).
Read-outs that look alike come from different tables or passages of the source.

Legend:
Assay type in all cases: cell-based
[1] = system: PC3; experiment: Cell viability, CellTiter-Glo assay, PC3
Description: (§1) The viability of screened cancer cells was recorded using a luminescence-based CellTiter-Glo® assay for the ATP quantification. The screening concentration of the molecule ranged from 100/10 μM to 45/4.5 nM with an 8-point-3-fold dilution series in DMEM media (>0.1% DMSO as control). Each experiment was conducted in more than two biological replicates with three technical replicates. The error bar is a representation of standard deviation among the technical replicates.
as §1, with “IITK3002” for “the molecule”, “10” for “100/10”, “4.5” for “45/4.5”
(§2) a. […] In parallel, we have also synthesized the bromoacetamide (IITK3002) version of the lead molecules which is slightly more reactive with thiol nucleophiles when compared to chlorooacetamide warheads as depicted in FIG. 13. […] In addition, we also evaluated the molecules' antiproliferative potency against a panel of twelve different cancer phenotypes. The set of cancer cell lines included liver, breast, colon, myeloma, bone, blood, skin, brain and prostate lineages (FIG. 2, 3, Table 1).

[2] = system: Huh-7 cells; experiment: Combination cell viability experiments with thiols, ferroptosis modulators and cell death inhibitors in Huh-7 cells; conditions: for cell death mechanism from combination experiments: combination with GSH, NAC, BSO, Fer-1, deferoxamine, RSL3, FIN56, Erastin, QVD-OPh, necrostatin-1, Huh-7 and 4T1; for reduction in potency by N-acetylcysteine (NAC) and GSH: 500 μM NAC or glutathione in combination; for effect of erastin addition on antiproliferative activity: Erastin 0.5 μM, relatively non-toxic concentration; for effect of apoptosis (QVD-OPh) and necrosis (Necrostatin-1) inhibitors on antiproliferative activity: QVD-OPh and Necrostatin-1 10 μM
Description: FIG. 14 depicts a combination experiment indicates the involvement of thiol modulation by IITK3001/IITK3002 on the viability of Huh-7 and 4T1 cells, in accordance with an embodiment of the present invention. The viability of screened cancer cells was recorded using a luminescence-based CellTiter-Glo® assay for the ATP quantification. The screening concentration of (a) IITK3001 and (b) IITK3002 ranged from 10 uM to 4.5 nM with an 8-point-3-fold dilution series in DMEM medium (>0.1% DMSO as control). For combination experiments, 500 μM of NAC or glutathione and 25 μM of BSO were used. Each experiment was conducted in more than two biological replicates with three technical replicates. The error bar is a representation of standard deviation among the technical replicates.
(§3) FIG. 16 depicts ferroptosis induction as a cell death mechanism is established for IITK3001 using combination experiments with ferroptosis inducers and inhibitors, in accordance with an embodiment of the present invention. The screening concentration of (a) IITK3001 and (b) IITK3002 ranged from 10 μM to 4.5 nM with an 8-point-3-fold dilution series in DMEM medium (>0.1% DMSO as control). For combination experiments, Ferrostain-1 (10 μM),Deferoxamine (3 μM), RSL3 (10 nM), FIN56 (30 nM), glutamine (0.5 mM), glutamic acid (0.5 mM), Erastin (0.5 μM) were used. Each experiment was conducted in more than two biological replicates with three technical replicates. The error bar is a representation of standard deviation among the technical replicates.
as §3, with “18” for “16”, “IITK3002” for “IITK3001”, “of” for “of (a) IITK3001 and (b)”, “μM), Deferoxamine” for “μM),Deferoxamine”
FIG. 20 depicts combining apoptosis and necroptosis inhibitors ruled out the possibility of respective cell death mechanisms upon treatment with IITK3001 or IITK3002 in Huh-7 and 4T1 cells, in accordance with an embodiment of the present invention. The screening concentration of IITK3001/IITK3002 ranged from 10 μM to 4.5 nM with an 8-point-3-fold dilution series in DMEM medium (>0.1% DMSO as control). For combination experiments, QVD-OPh and Necrsotatin-1 (10 μM) were used. Each experiment was conducted in more than two biological replicates with three technical replicates. The error bar is a representation of standard deviation among the technical replicates.
FIG. 22 depicts ferroptosis induction was established for IITK3003 using combination experiments in Huh-7 cells, in accordance with an embodiment of the present invention. The screening concentration of IITK3002 ranged from 10 uM to 4.5 nM with an 8-point-3-fold dilution series in DMEM medium (>0.1% DMSO as control). For combination experiments, Ferrostain-1 ([…]), Deferoxamine (3 μM), RSL3 (10 nM), FIN56 (30 nM), glutamine (0.5 mM), glutamic acid (0.5 mM), Erastin (0.5 μM) were used. Each experiment was conducted in more than two biological replicates with three technical replicates. The error bar is a representation of standard deviation among the technical replicates.
FIG. 24 depicts ferroptosis induction was established for IITK3004 using combination experiments in Huh-7 cells, in accordance with an embodiment of the present invention. The screening concentration of the molecules (a) IITK3001 and (b) IITK3002 ranged from 10 μM to 4.5 nM with a 8-point-3-fold dilution series. […]

[3] = system: A549; experiment: Cell viability, A549; conditions: Homo sapiens
[4] = system: U2OS; experiment: Cell viability, CellTiter-Glo assay, U2OS
How it was run: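 Cell viability was measured by CellTiter-Glo ATP luminescence in DMEM, with DMSO control. The compound was tested in an 8-point 3-fold dilution series from 100 or 10 μM down to 45 or 4.5 nM. Each run had at least two biological replicates, each in technical triplicate.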

[5] = system: 22Rv1; experiment: Cell viability, CellTiter-Glo assay, 22Rv1
Description: as §1
as §1, with “IITK3002” for “the molecule”, “10” for “100/10”, “4.5” for “45/4.5”
as §2

[6] = Homo sapiens, PC-3, PC3, cell viability
[7] = Homo sapiens, 22Rv1, 22Rv1, cell viability

EC50 [1, 6] [nM]	EC50 [3] [nM]	EC50 ([4]; Homo sapiens) [nM]	EC50 [5, 7] [nM]	EC50 ([1]; PC3, cell viability) [nM]	EC50 [4] [nM]	EC50 ([5]; 22Rv1, cell viability) [nM]	Structure (SMILES)	cell death mechanism from combination experiments [2]	reduction in potency by N-acetylcysteine (NAC) and GSH [2] [fold]	effect of erastin addition on antiproliferative activity [2]	effect of apoptosis (QVD-OPh) and necrosis (Necrostatin-1) inhibitors on antiproliferative activity [2]
1110	700	1290	420	–	–	–	C#CCN(C(=O)CCl)c1ccccc1C(=O)c1ccccc1 [IITK3003, N-(2-benzoylphenyl)-2-chloro-N-(prop-2-yn-1-yl)acetamide]	exceptionally selective ferroptosis inducers	–	–	–
193	30	133	40	190	130	–	CN(C(=O)CBr)c1ccccc1C(=O)c1ccccc1 [IITK3002, N-(2-benzoylphenyl)-2-bromo-N-methylacetamide]	ferroptosis	> 500	no effect	no apparent deviation
348	610	355	148	350	350	150	CN(C(=O)CCl)c1ccccc1C(=O)c1ccccc1 [IITK3001, N-(2-benzoylphenyl)-2-chloro-N-methylacetamide]	ferroptosis	> 1000	no effect	no apparent deviation
